In ChEMBL document CHEMBL5150063, “Discovery of Orally Bioavailable N-Benzylpiperidinol Derivatives as Potent and Selective USP7 Inhibitors with In Vivo Antitumor Immunity Activity against Colon Cancer” (J Med Chem, 2022):
Active and inactive are the calls of the source. The rule behind the calls is not given here.

Tests used:
[1] = target: T1, Ubiquitin carboxyl-terminal hydrolase 7 (Homo sapiens, UniProt Q93009); assay: Inhibition of full-length USP7 (unknown origin) using ubiquitin-rhodamine 110 as substrate preincubated for 30 mins followed by substrate addition and measured after 2 hrs by microplate spectrophotometer analysis
T1 sequence (Q93009 whole entry, the tested form may be a part): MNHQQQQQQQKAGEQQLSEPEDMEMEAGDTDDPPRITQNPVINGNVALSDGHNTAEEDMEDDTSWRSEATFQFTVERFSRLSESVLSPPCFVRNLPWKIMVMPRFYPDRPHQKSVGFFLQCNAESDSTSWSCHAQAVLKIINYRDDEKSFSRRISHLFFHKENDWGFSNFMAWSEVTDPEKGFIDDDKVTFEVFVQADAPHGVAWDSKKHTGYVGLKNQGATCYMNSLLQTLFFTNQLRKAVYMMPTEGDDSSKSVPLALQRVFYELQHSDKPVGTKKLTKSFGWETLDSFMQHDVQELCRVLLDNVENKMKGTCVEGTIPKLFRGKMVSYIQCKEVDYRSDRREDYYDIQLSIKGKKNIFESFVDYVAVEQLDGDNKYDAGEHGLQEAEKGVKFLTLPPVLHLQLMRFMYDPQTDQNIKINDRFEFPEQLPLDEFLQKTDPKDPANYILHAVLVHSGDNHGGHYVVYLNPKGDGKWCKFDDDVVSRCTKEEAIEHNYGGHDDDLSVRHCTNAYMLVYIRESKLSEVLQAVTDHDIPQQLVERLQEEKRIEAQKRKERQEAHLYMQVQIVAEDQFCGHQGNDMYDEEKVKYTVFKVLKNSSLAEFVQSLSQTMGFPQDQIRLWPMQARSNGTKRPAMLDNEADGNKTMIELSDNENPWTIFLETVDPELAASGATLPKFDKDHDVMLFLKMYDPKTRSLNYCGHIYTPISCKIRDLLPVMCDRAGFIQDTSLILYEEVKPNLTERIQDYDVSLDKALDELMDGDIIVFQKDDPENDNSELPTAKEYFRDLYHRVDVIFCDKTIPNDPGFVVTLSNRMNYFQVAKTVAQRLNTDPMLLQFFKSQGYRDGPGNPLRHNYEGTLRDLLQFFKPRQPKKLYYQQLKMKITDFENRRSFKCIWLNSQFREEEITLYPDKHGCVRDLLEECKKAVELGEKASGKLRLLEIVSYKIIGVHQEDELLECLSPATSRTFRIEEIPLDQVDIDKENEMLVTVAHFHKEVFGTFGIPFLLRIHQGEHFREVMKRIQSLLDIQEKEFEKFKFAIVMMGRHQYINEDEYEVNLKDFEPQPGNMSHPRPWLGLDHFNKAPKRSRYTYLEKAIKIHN

[2] = target: T1, Ubiquitin carboxyl-terminal hydrolase 7; assay: Binding affinity to human USP7 (208 to 560 residues) by SPR method
MC-38 [3] = assay: Antitumor activity against mouse MC38 cells allografted in po dosed C57BL/6J mouse assessed as reduction in tumor growth administered once daily for 21 days; format: functional, organism-based; settings: time 21.0 day, DDE = dose-dependent effect
MC-38 [4] = assay: Antitumor activity against mouse MC38 cells allografted in C57BL/6J mouse assessed as tumor growth inhibition at 100 mg/kg, po administered once daily for 21 days; format: functional; settings: MC-38, 504 h, time 21 day, read-out: TGI
MC-38 [5] = assay: Antitumor activity against mouse MC38 cells allografted in C57BL/6J mouse assessed as tumor growth inhibition at 20 mg/kg, po administered once daily for 21 days; format: functional; settings: MC-38, 504 h, time 21 day, read-out: TGI
MC-38 [6] = assay: Antitumor activity against mouse MC38 cells allografted in C57BL/6J mouse assessed as decrease in spleen index at 20 to 100 mg/kg, po administered daily for 20 days; format: functional, organism-based; settings: dose 20-100 mg/kg, time 20.0 day
MC-38 [7] = assay: Antitumor activity against mouse MC38 cells allografted in C57BL/6J mouse assessed as upregulation of CD8+ T-cells in T-lymphocytes at 100 mg/kg, po administered daily for 20 days (reference value: 5.2%); format: functional; settings: time 20 day
MC-38 [8] = assay: Antitumor activity against mouse MC38 cells allografted in C57BL/6J mouse assessed as upregulation of NKT-cells in CD45+ cells at 20 mg/kg, po administered daily for 20 days (reference value: […]); format: functional; settings: time 20 day
MC-38 [9] = assay: Antitumor activity against mouse MC38 cells allografted in C57BL/6J mouse assessed as upregulation of NKT-cells in CD45+ cells at 100 mg/kg, po administered daily for 20 days (reference value: […]); format: functional; settings: time 20 day
MC-38 [10] = assay: Antitumor activity against mouse MC38 cells allografted in C57BL/6J mouse assessed as upregulation of NK-cells in CD45+ cells at 20 mg/kg, po administered daily for 20 days (reference value: 3.7%); format: functional; settings: time 20 day
MC-38 [11] = assay: Antitumor activity against mouse MC38 cells allografted in C57BL/6J mouse assessed as upregulation of NK-cells in CD45+ cells at 100 mg/kg, po administered daily for 20 days (reference value: 3.7%); format: functional; settings: time 20 day
MC-38 [12] = assay: Antitumor activity against mouse MC38 cells allografted in C57BL/6J mouse assessed as downregulation of Treg in CD4+ T-cells at 100 mg/kg, po administered daily for 20 days (reference value: 10.1%); format: functional; settings: time 20 day
MC-38 [13] = assay: Antitumor activity against mouse MC38 cells allografted in C57BL/6J mouse assessed as downregulation of MDCS in CD45+ […] at 100 mg/kg, po administered daily for 20 days (reference value: 27.9%); format: functional; settings: time 20 day
MC-38 [14] = assay: Antitumor activity against mouse MC38 cells allografted in C57BL/6J mouse assessed as increase in M1 cells at 20 mg/kg, po administered daily for 20 days; format: functional, organism-based; settings: time 20.0 day
MC-38 [15] = assay: Antitumor activity against mouse MC38 cells allografted in C57BL/6J mouse assessed as decrease in M2 cells at 20 mg/kg, po administered daily for 20 days; format: functional, organism-based; settings: time 20.0 day
MC-38 [16] = assay: Antitumor activity against mouse MC38 cells allografted in C57BL/6J mouse assessed as increase in ratio of M1 to M2 cells at 20 mg/kg, po administered daily for 20 days; format: functional, organism-based; settings: time 20.0 day
MC-38 [17] = assay: Antitumor activity against mouse MC38 cells allografted in C57BL/6J mouse assessed as increase in TNFalpha level at 20 mg/kg, po administered daily for 20 days by ELISA (reference value: […]); format: functional; settings: time 20 day
MC-38 [18] = assay: Antitumor activity against mouse MC38 cells allografted in C57BL/6J mouse assessed as increase in TNFalpha level at 100 mg/kg, po administered daily for 20 days by ELISA (reference value: […]); format: functional; settings: time 20 day
MC-38 [19] = assay: Antitumor activity against mouse MC38 cells allografted in C57BL/6J mouse assessed as increase in INFalpha level at 100 mg/kg, po administered daily for 20 days by ELISA; format: functional, organism-based; settings: time 20.0 day
MC-38 [20] = assay: Antitumor activity against mouse MC38 cells allografted in C57BL/6J mouse assessed as increase in IL-2 level at 100 mg/kg, po administered daily for 20 days by ELISA; format: functional, organism-based; settings: time 20.0 day

`Cn1nc2c(=O)n(CC3(O)CCN(Cc4ccc(-c5ccco5)cc4Cl)CC3)cnc2c1-c1ccc(F)cc1` was tested, and the IC50 [1] was 64.5 nM, the Kd [2] was 541 nM and the Activity (MC-38 [3]) was “Dde”. For the same compound, the inhibition in vivo at 100 mg/kg (MC-38 [4]) was 74.2%, the inhibition in vivo at 20 mg/kg (MC-38 [5]) was 36.6% and the Activity (MC-38 [6]) was “Active”. The Activity (MC-38 [7]) was 9.9%, the Activity (MC-38 [8]) was 9.8% and the Activity (MC-38 [9]) was 18%. The Activity (MC-38 [10]) was 7.5%, the Activity (MC-38 [11]) was 12.2% and the Activity (MC-38 [12]) was 5.8%. For the same compound, the Activity (MC-38 [13]) was 11.4%, the Activity (MC-38 [14]) was “Active” and the Activity (MC-38 [15]) was “Active”. For the same compound, the Activity (MC-38 [16]) was “Active”, the Activity (MC-38 [17]) was 2.66 pg/mL and the Activity (MC-38 [18]) was 2.79 pg/mL. For the same compound, the Activity (MC-38 [19]) was “Active” and the Activity (MC-38 [20]) was “Active”.
